Earlier results on two compounds are cited in patent publication US5897876A, “Emulsified drug delivery system” (Shire Laboratories Inc., priority 1997, dated 1999).

The series has as its system peptide transport. As to conditions: in other vehicles; "known".

In the case of `CCCCC/C=C\C/C=C\CCCCCCCC(=O)O` [linoleic acid], the promote peptide transport entry is “known to promote peptide transport in other vehicles”.

As to `CCCCCCCC/C=C\CCCCCCCC(=O)O` [oleic acid], the promote peptide transport entry is on record as “known to promote peptide transport in other vehicles”.
